# Results: ChEMBL document CHEMBL5727865, “4,6-substituted-pyrazolo[1,5-a]pyrazines as Janus kinase inhibitors” (2020)
# Key:
# [1] = biological target: Tyrosine-protein kinase JAK1 (Homo sapiens, UniProt P23458); test: (§1) JAK1 Inhibition Assay: Compounds of Formula I were screened for their ability to inhibit JAK1 using the general enzyme inhibition assay method, in which the assay mixture contained 1 mM ATP, 8 μM Omnia Y12 peptide (Catalog # IVGN KPZ3121C; Invitrogen Corporation, Carlsbad, Calif.) and 12.5 nM JAK1 in a total volume of 25 μL. JAK1 was purchased from Invitrogen Corporation, Carlsbad, Calif. (catalog # IVGN PV4775).
# Tyrosine-protein kinase JAK1, sequence (P23458 whole entry): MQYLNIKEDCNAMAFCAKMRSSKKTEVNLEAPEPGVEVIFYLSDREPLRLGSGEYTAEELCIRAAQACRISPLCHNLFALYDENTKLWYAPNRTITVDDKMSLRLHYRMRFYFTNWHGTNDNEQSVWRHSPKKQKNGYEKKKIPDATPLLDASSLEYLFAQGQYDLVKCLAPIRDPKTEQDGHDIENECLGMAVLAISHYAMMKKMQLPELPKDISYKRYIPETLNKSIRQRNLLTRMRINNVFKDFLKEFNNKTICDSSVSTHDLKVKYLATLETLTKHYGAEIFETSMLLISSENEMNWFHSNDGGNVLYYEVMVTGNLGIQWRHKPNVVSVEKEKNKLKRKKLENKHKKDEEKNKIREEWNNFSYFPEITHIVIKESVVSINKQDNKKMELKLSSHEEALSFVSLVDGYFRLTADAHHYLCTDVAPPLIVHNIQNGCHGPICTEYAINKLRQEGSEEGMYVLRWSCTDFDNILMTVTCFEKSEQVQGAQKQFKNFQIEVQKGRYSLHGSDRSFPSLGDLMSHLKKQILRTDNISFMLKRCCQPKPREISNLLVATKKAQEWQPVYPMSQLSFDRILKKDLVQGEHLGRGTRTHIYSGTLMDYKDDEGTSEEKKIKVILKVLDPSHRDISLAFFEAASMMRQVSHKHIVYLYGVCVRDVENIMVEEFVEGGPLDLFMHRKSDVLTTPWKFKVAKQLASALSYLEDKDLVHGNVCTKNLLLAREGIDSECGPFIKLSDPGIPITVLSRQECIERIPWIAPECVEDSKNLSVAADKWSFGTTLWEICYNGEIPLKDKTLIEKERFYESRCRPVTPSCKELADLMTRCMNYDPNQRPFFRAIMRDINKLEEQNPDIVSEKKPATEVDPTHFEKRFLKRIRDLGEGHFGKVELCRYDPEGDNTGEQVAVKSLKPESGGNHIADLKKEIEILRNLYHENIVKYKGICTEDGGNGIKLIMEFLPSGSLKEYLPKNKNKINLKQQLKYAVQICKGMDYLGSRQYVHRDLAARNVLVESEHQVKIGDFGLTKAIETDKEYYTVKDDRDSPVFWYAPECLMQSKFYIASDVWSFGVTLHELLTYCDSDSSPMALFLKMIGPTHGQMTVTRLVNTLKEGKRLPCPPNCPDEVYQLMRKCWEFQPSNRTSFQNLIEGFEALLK
# [2] = biological target: Tyrosine-protein kinase JAK2 (Homo sapiens, UniProt O60674); test: as §1, with “JAK2” for “JAK1”, “10” for “8”, “Y7” for “Y12”, “KNZ3071C,” for “KPZ3121C;”, “4” for “12.5”, “PV4288).” for “PV4775).”
# Tyrosine-protein kinase JAK2, sequence (O60674 whole entry): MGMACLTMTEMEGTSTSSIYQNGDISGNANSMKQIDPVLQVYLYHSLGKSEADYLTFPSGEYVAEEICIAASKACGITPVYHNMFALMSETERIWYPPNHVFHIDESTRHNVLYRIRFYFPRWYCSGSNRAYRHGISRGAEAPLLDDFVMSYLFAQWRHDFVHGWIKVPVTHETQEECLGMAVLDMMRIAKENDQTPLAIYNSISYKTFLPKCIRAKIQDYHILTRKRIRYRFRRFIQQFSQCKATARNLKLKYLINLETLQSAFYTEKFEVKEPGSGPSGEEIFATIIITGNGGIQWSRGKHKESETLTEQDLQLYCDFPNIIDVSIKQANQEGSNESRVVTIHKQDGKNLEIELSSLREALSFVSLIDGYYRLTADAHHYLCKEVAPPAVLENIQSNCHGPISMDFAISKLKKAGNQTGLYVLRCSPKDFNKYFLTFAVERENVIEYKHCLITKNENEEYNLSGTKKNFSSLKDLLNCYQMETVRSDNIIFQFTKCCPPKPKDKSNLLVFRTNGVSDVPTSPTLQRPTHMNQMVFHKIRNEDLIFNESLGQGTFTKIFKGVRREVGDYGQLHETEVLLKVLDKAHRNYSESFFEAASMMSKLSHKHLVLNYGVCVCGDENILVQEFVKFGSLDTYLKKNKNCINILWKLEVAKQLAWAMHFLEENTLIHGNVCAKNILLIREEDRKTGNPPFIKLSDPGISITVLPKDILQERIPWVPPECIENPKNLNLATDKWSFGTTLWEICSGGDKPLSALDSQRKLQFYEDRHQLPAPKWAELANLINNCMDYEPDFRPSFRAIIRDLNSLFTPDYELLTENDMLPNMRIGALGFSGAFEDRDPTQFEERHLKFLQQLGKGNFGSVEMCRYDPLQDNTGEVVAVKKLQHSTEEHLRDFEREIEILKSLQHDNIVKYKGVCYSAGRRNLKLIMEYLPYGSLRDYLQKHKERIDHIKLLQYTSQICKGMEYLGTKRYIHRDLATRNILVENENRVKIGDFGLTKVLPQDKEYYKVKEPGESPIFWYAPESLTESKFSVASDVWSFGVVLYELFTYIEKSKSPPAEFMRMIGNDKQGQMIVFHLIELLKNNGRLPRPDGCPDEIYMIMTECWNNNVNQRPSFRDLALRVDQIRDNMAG
SMILES,IC50 [1],IC50 [2] [nM]
CCC(CC)n1cc(-c2nc(-c3cnn([C@H]4C[C@@](O)(CO)C4)c3)cn3nccc23)cn1,in the range around 5500 nM,
CCC(CC)n1cc(-c2nc(-c3cnn([C@H]4C[C@@H](O)[C@@H](O)C4)c3)cn3nccc23)cn1,,< 10
